In PMC9860859, “Design, Development, and Optimisation of Smart Linker Chemistry for Targeted Colonic Delivery—In Vitro Evaluation” (Pharmaceutics, 2023):
Where “and” joins values, the source holds several entries; their conditions need not be identical. Equal values may be shown once. Entries after “also recorded” stand apart in the source; their conditions may differ.

Tests used:
[1] = cited from earlier work
[2] = In vitro release assay of probes 13–17 by HPLC in buffers simulating the GIT
Procedure: (§1) Test solutions for probes 13–17 were prepared at 25 µM in a 1:1 mixture of ethanol and the respective buffer. Samples were incubated at 37 °C, then analysed by HPLC using an Agilent 1260 Infinity system, with conditions as follows: Agilent ZORBAX Eclipse Plus C18 Rapid Resolution column, 3.5 μm (4.6 × 100 mm), 95 Å pore size; column temperature, 35 °C; injection volume, 2 μL; flow rate, 1.0 mL min^−1; gradient elution from 5–100% solvent B (0.1% TFA in MeCN) in solvent A (0.1% TFA in ultrapure water) over 9 min, then hold for 1 min at 100% B; UV detection at two wavelengths (254 and 214 nm). The total run time was 10 min, and the retention times of the model compounds CTG and DCM-OH were 4.28 and 6.16 min, respectively. The retention times of probes 13–17 were 4.41, 4.53, 4.58, 5.97, and 6.04 min, respectively. Calibration curves of free fluorophore were constructed at pH values of 1.2, 5.0, 6.5, and 7.5 over the concentration range of 10–100 µM. A concentration of 25 μM was selected to run in the assay as it gave a good instrument response at the selected wavelength. The data at each pH value was fitted by linear regression, yielding equations of the form: y = ax ± b, where y is the peak area and x is the corresponding concentration in µM. Furthermore, the correlation coefficient (R^2) was ≥0.999 in each case, confirming the linearity of the method used under the specified conditions.
(§2) Release assays for probes 13–17 were performed in vitro using pH and temperature conditions chosen to simulate the GIT, with analysis by HPLC. We used KCl/HCl buffer (pH 1.2) and acetate buffer (pH 5.0) to simulate the pH of the stomach and the duodenum, respectively, while PBS (pH 7.5) and phosphate buffer (pH 6.5) were used to mimic the pH of the lower small intestine and the colon. The compounds were dissolved in 1:1 ethanol/buffer and incubated at 37 °C. Aliquots were taken at different time points and analysed by HPLC and LC/MS, as described in Section 2.2. […] Thus, the aforementioned compounds were incubated at pH 1.2 for 5 h to test their stability under conditions simulating the stomach. […] Then, the stability of the probes was tested in simulated duodenum conditions for 30–40 min, reflecting the reported transit time in the duodenum [26].

[3] = set-up: method as in PMID 33979164; conditions: cited from earlier work
[4] = set-up: method as in PMID 33979164; conditions: cited from earlier work; remark: listed apart in the source
[5] = set-up: method as in PMID 33979164; conditions: cited from earlier work; remark: listed apart in the source
[6] = In vitro release of Msl from Msl prodrugs by HPLC in buffers simulating the GIT; type: physicochemical; conditions: pH 7.5, 37 °C, over 2 h, water/buffer 1:1, small intestine-like
[7] = as above; type: physicochemical; conditions: for release of Msl: colon-like conditions (pH 6.5); for Msl release / prodrug stability: 37 °C; for prodrug remained intact: simulated upper GIT conditions
Procedure: We chose Msl as a starting point for putting our prodrug concept into practice. […] Therefore, a new methodology was developed in which prodrug 21 was incubated in 1:1 ethanol/buffer and the HPLC analysis was run with UV detection at 310 nm, as detailed in the Supplementary Materials.
Then, the same compound was incubated at pH 7.5 and 6.5 to measure its stability under conditions mimicking the small intestine and colon, respectively. […] We believed that the formaldehyde released after cyclisation of the linker had initiated the side-reaction according to the mechanism described in detail in Supplementary Materials and supported by literature (Scheme S3).

[8] = set-up: method as in PMID 2219958; conditions: cited from earlier work
[9] = buffer, pH 5
Procedure: as §1, §2

[10] = Fluorometric assay of the stability of probes 13 and 16 at pH 7.5 and 6.5; type: physicochemical
Source text: page 2: 1. Stability of probe 13 at pH 7.5 and 6.5 using the spectrofluorometric assay. Principal: CTG's fluorescence is reversibly quenched or shifted to another wavelength when the phenol group is conjugated to the pH-sensitive linkers. Upon cyclization of the linker and the release of the free phenol, the fluorescence will be restored (on-mode). Fluorescence can be measured to follow the release of the payload, which is the fluorophore itself. The optical properties of the free fluorophore were measured in 50% DMSO/buffer at pHs 7.5, and 6.5. Since the fluorescence- based assay depends on the difference in fluorescence properties between the free fluorophore and its conjugates, the excitation wavelength must be carefully chosen. […] Secondly, the wavelength that gave a reasonable absorbance rather than maximum absorbance should be chosen to avoid exceeding the detector limits. Finally, a long distance between the excitation and emission wavelengths is preferable to minimize the background fluorescence. Accordingly, the in vitro tests were conducted by measuring the fluorescence at 555 nm after excitation of the probes at 500 nm, as this wavelength achieved the previous requirements. […] The microplate was incubated at 37 °C, and the fluorescence (em: 555 nm, ex: 500 nm) was recorded at every time point until the full release of CTG was obtained. […]

[11] = pH 1.2 (KCl/HCl buffer/EtOH 1:1), 5 h, 37 °C, 25 µM, stomach-like

Cc1cc(C(=O)O)ccc1-c1c2ccc(=O)cc-2oc2cc(O)ccc12 [CTG, 4-Carboxy-2-methyl Tokyo Green]
pKa [1]: 4.33

N#CC(C#N)=C1C=C(/C=C/c2ccc(O)cc2)Oc2ccccc21 [DCM-OH, Dicyanomethylene-4H-pyran dye]
pKa [1]: 7.21

Nc1ccc(O)c(C(=O)O)c1 [Msl, Mesalamine]
pKa of aromatic amino group (–NH3+) [1]: 6
pKa of carboxylic group (–COOH) [1]: 3
pKa of phenolic group (–OH) [1]: 13.9

C#CCCCNCCCCOC(=O)OCOc1ccc2c(-c3ccc(C(=O)O)cc3C)c3ccc(=O)cc-3oc2c1.Cl [Probe 15, N-(4-(((((9-(4-Carboxy-2-methylphenyl)-3-oxo-3H-xanthen-6yl)oxy)methoxy)carbonyl)oxy)butyl)pent-4-yn-1-aminium chloride]
half-life at 25 µM ([2]; PBS, pH 7.5): 2.4 ± 0.37 h
half-life at 25 µM ([2]; acetate buffer, pH 5): > 0.583 h
CTG payload released (sustained release) ([2]; colon-like conditions (pH 6.5), over 38 h): > 90%
fluorophore release / stability under stomach-like conditions ([2]; pH 1.2, 37 °C): excellent stability; also recorded: no detectable fluorophore release; also recorded: stable
fluorophore release / stability under duodenum-like conditions ([2]; pH 5.0, 37 °C): excellent stability; also recorded: no detectable fluorophore release; also recorded: stable
half-life at 25 µM ([2]; phosphate buffer, pH 6.5): 13.2 ± 0.54 h
CTG payload protected from being released ([2]; small intestine-like conditions, pH 7.5, 2 h): 60%

C#CCCCNCCCOC(=O)OCOc1ccc(/C=C/C2=CC(=C(C#N)C#N)c3ccccc3O2)cc1.Cl [Probe 17, (E)-N-(3-((((4-(2-(4-(Dicyanomethylene)-4H-chromen-2-yl)vinyl)phenoxy)methoxy)carbonyl)oxy)propyl)pent-4-yn-1-aminium chloride]
half-life at 25 µM ([2]; PBS, pH 7.5): 0.113 ± 0.012 h
half-life at 25 µM ([2]; acetate buffer, pH 5): 16.4 ± 1.52 h
fluorophore release [2, 11]: 0.5%
free fluorophore detected ([2]; pH 5.0 (acetate buffer/EtOH 1:1), at 35 min, 37 °C): 7%
time to full fluorophore release ([2]; pH 6.5, mimicking the colon, 37 °C): 170 min
time to achieve complete fluorophore release ([2]; pH 7.5, small intestine-like, 37 °C): 40 min
half-life at 25 µM ([2]; phosphate buffer, pH 6.5): 0.467 ± 0.0257 h

CNCCCOC(=O)OCOc1c(-c2ccc(Oc3ccc(OC(F)(F)F)cc3)cc2F)c(C)nc2cc(OC)c(Cl)cc12 [Prodrug 2]
oral bioavailability compared with the parent drug [3]: enhanced oral bioavailability
aqueous solubility compared with the parent drug [4]: improved aqueous solubility
stability under stomach-like conditions [5]: stable

C#CCCCNCCCCOC(=O)OCOc1ccc(N)cc1C(=O)O.Cc1ccc(S(=O)(=O)O)cc1.Cc1ccc(S(=O)(=O)O)cc1 [Prodrug 21, 3-Carboxy-4-((((4-(pent-4-yn-1-ylammonio)butoxy)carbonyl)oxy)methoxy)benzeneaminium-di(4-methylbenzenesulfonate)]
Msl payload released [6]: 20%
release of Msl ([7]; after 24 h): 36%
release of Msl ([7]; after 48 h): 61–68% and 61%
release of Msl ([7]; after 6 d): 93%
Msl release / prodrug stability ([7]; pH 1.2, 5 h, stomach-like): no Msl was released
Msl release / prodrug stability ([7]; pH 5.0, 35 min, duodenum-like): no Msl was released
prodrug remained intact [7]: 77–80%

C#CCCCNCCCOC(=O)OCOc1ccc(N)cc1C(=O)O.Cc1ccc(S(=O)(=O)O)cc1.Cc1ccc(S(=O)(=O)O)cc1 [Prodrug 22, 3-Carboxy-4-((((3-(pent-4-yn-1-ylammonio)propoxy)carbonyl)oxy)methoxy)benzeneaminium-di(4-methylbenzenesulfonate)]
Msl payload released [6]: 23.5%
release of Msl ([7]; after 48 h): 61–68% and 68%
Msl release / prodrug stability ([7]; pH 1.2, 5 h, stomach-like): fully intact
Msl release / prodrug stability ([7]; pH 5.0, 35 min, duodenum-like): fully intact
prodrug remained intact [7]: 77–80%

CCOC(=O)OC(C)OC1=C(C(=O)Nc2ccccn2)N(C)S(=O)(=O)c2ccccc21 (centres unmarked) [ampiroxicam]
t½ ([8]; pH 1): ≥ 50 h
t½ (hydrolysis) ([8]; pH 6.0–8.5): ≥ 8 h

(E)-N-(3-((((4-(2-(4-(dicyanomethylene)-4H-chromen-2-yl)vinyl)phenoxy)methoxy)carbonyl)oxy)propyl)pent-4-yn-1-aminium chloride [Probe 16]
half-life [9]: 0.343 ± 0.0035 h
fluorophore release [2, 11]: 3%
fluorophore release ([2]; pH 5.0 (acetate buffer/EtOH 1:1), 30–40 min, 37 °C, duodenum-like): ~ 66%
time to conversion to the free fluorophore ([10]; at both pH 6.5 and pH 7.5, buffer/DMSO 1:1, 37 °C): ≤ 3 min
fluorophore release in fluorometric assay ([10]; pH 7.5 and 6.5, buffer/DMSO 1:1, 37 °C): released immediately
